Reference: US12331106B2, “Anti-angiopoietin-2 antibodies that induce Tie2 activation” (Institute for Basic Science, priority 2018, dated 2025)
Numbering of substitutions follows the chain as printed.

Tests used:
[1] = system: choroidal neovascularization (CNV) / choriocapillaris; test: Laser-induced CNV model, OCTA: CNV volume and choriocapillary regeneration (avascular space); type: in vivo, mice; details: for increased avascular space: 5 μg intravitreal at 7 days
Protocol: To determine the effect of 2C8H11 in CNV regression and choriocapillary regeneration after establishment of CNV, Fc, VEGF-Trap, control antibody or 2C8H11 (5 μg each) was given intravitreally to the mice by the Nanoliter 2000 micro-injector (World Precision Instruments) at 7 days after laser photocoagulation. Intra-vital optical coherence tomography angiography (OCTA) was performed at 6, 14, 21, and 35 days after laser photocoagulation (FIG. 14A). The retinochoroidal layers were imaged using a prototype high-speed swept-source optical coherence tomography (OCT) system, utilizing a custom ring cavity wavelength-swept laser centered at 1048 nm with an A-scan rate of 230 kHz. OCT images were collected in a 1.7 mm×1.7 mm field of view within the retino-choroidal layer to monitor regeneration of choroidal vasculatures at the site of laser photocoagulation after intravitreal injection of reagents. […] Then, by using automatic layer flattening and segmentation algorithms, cross-sectional OCT angiograms were flattened to RPE, and en face OCT angiograms were generated by separate projection of each flattened cross-sectional OCT angiogram in three depth ranges: inner retinal, outer retinal and choroidal layers. The outer plexiform layer and Bruch's membrane were defined as the boundaries separating inner retinal, outer retinal, and choroidal layers. The density of retina and choroid vessel was automatically calculated as the proportion of measured area occupied by flowing blood vessels defined as pixels having decorrelation values above the threshold level. Avascular pixels were detected from the en face OCT angiogram representing choroidal layer by means of the image processing toolbox of MATLAB® (Math Works). Then the total volume of the avascular space surrounding the laser injury site was calculated by summing the number of avascular pixels multiplied by the volume of one pixel. In order to analyze the changing complexion of avascular space volume, serially measured values in each eye were transformed into percentage change from baseline value. […] Overall, these findings indicate that both 2C8H11 and […] promotes regeneration of the choriocapillaris, while VEGF-Trap leads to choriocapillary regression in the laser-induced CNV model.

[2] = system: choroidal neovascularization (CNV); test: Laser-induced CNV model, intravitreal injection: CNV regression and vascular leakage; type: in vivo, mice; details: 5 μg intravitreal at 7 days
Protocol: 2C8H11 antibody was tested for its ability to inhibit choroidal neovascularization (CNV), the hallmark of wet age-related macular degeneration (AMD) using laser-induced CNV model. After dilation of pupils with 5 mg/ml phenylephrine and 5 mg/ml tropicamide eye drops (Santen Pharmaceutical) and instillation of 0.5% proparacaine hydrochloride eye drops (Alcon) for topical anesthesia, laser photocoagulator (Lumenis Inc.) with a slit lamp delivery system was used with a glass coverslip as a contact lens to visualize the retina. Sufficient laser energy (532 nm wavelength, 250 mW power, 100 ms duration, 50 μm spot size) was delivered in 4 locations for each eye (the 3, 6, 9 and 12 o'clock positions of the posterior pole). Only burns that produced a bubble at the time of laser photocoagulation, indicating the rupture of the Bruch's membrane, were included in this study. Spots containing hemorrhage at the laser site were excluded from the analysis. To recapitulate a clinical situation, 2C8H11 (5 μg) was administered intravitreally to the mice at 7 days after laser photocoagulation (FIG. 13A). As a control or as for comparison, Fc or VEGF-Trap (5 μg each) was administered in the same manner to the mice. To intravitreally administer indicated reagents, ˜1 μl (5 mg/ml) containing 5 μg of each reagent was injected into the vitreal cavity using the Nanoliter 2000 micro-injector (World Precision Instruments) fitted with a glass capillary pipette. CD31+CNV volumes of the retinal pigment epithelium (RPE)-choroid-sclera flat mounts were calculated using the MATLAB® Image Processing Toolbox™ (Math Works, a comprehensive set of reference-standard algorithms and workflow apps for image processing, analysis, visualization, and algorithm development) at 14 days after laser photocoagulation. Anti-CD31 antibody (1:200, Millipore®) was used for the detection of endothelial cells of CNV. […] Combined fluorescein angiography (FA) and indocyanine green angiography (ICGA) enabled us to measure vascular leakage at the neovessels around the laser injury site. Continuous-wave laser modules at 488 nm and 785 nm were used as excitation sources for fluorescein and ICG, respectively. A raster scanning pattern of excitation lasers was achieved by a scanner system consisting of a rotating polygonal mirror (MC-5; Lincoln Laser) and a galvanometer-based scanning mirror (6230H; Cambridge technology), and delivered to the back aperture of an imaging lens. A high numerical aperture (NA) objective lens (PlanApo λ, NA 0.75; Nikon) was used as the imaging lens to provide wide-field fundus fluorescence images. Fluorescence signals detected by photomultiplier tubes (R9110; Hamamatsu Photonics) were digitized by frame grabber and reconstructed to images with size of 512×512 pixels per frame in real time. To visualize late-phase (6 min) FA and ICGA images utilizing the angiography system, 10 mg of fluorescein sodium (Alcon) and 0.15 mg of ICG (Daiichi Pharmaceutical) were administered intraperitoneally and intravenously, respectively. The imaging procedure was performed under systemic anesthesia and pupil dilation to improve the quality of images. Leaky areas from CNV were calculated as the total measured hyperfluorescent areas in FA images divided by the total measured CNV areas in ICGA images using a Java-based imaging software (ImajeJ; National Institutes of Health). […] Thus, the magnitude of the suppression of CNV and vascular leakage was quantitatively indistinguishable between VEGF-Trap and 2C8H11 in the mouse model of laser-induced CNV.

[3] = system: Tie2 receptor clustering / FOXO1 translocation in HUVECs; test: Tie2 clustering and FOXO1 translocation in HUVECs (immunofluorescence); type: cell-based, human; details: HUVECs; 30 min; compared to serum-starved control
Protocol: Tie2 clustering at cell-cell junction area and FOXO1 translocation from nucleus to cytosol by anti-Ang2 antibodies were examined in HUVECs by immunofluorescence. Specifically, HUVECs were seeded on 8 well slide chamber (Lab-Tek™ II) and maintained in EGM-2 medium for 2-3 days. At 100% confluence, the cells were serum starved with EBM-2 medium for 4 hrs and then treated with 1 μg/ml anti-Ang2 antibodies together with 1 μg/ml of hAng2 for 30 min. Thereafter, the cells were fixed with 4% formaldehyde in PBS at room temperature (RT) for 10 min, permeabilized with 0.1% TRITON™ X-100 (non-ionic polyoxyethylene surfactant) in PBS, blocked with 1% BSA in PBS at RT for 60 min, and incubated with primary antibodies at RT for 1 hr. The primary antibodies for hTie2, FOXO1, and Human Fc were used. The cells were then incubated with secondary antibodies (Invitrogen) in the dark at RT for 1 hr and mounted with VECTASHIELD® mounting medium with DAPI (Vector Labs, antifade mounting media optimized for immunofluorescence applications). Images were taken with a laser scanning confocal microscope (LSM880, Carl Zeiss).
2C8H11-induced Tie2 clustering and FOXO1 translocation was examined in a time-course study (from 10 min to 240 min). […] 6-4: Inhibition of Vascular Permeability by Humanized Anti-Ang2 Antibodies

hAng2 = biological target: T1, hAng2 (Homo sapiens, UniProt O15123); test: OCTET affinity of humanized anti-Ang2 antibodies against hAng2; type: binding; details: humanized 4B9 antibodies (IgG1) fixed on AR2G biosensor; hAng2 50-0 nM
T1 sequence (O15123 19-496): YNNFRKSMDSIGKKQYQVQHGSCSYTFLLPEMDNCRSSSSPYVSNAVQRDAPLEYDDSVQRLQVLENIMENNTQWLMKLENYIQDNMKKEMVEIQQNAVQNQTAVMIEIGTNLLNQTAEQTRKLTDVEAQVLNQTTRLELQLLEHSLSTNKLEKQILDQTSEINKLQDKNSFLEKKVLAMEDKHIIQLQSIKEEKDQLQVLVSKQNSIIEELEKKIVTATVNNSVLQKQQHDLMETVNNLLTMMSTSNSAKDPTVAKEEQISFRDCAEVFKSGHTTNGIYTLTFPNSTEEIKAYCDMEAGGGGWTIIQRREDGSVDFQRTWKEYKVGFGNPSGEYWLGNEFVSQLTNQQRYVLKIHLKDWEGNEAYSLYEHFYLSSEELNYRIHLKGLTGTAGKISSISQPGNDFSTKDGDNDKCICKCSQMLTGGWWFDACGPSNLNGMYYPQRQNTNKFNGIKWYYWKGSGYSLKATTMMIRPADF

## VEGF-Trap: VEGF-Trap, comparison agent given intravitreally, 5 μg [reference compound]
[1]; 5 μg intravitreal at 7 days after laser photocoagulation
  CNV volume in outer retinas (OCTA): markedly reduced CNV volume
[1]; D14
  increased avascular space: 11.4%
[1]; D21
  increased avascular space: 16.0%
[1]; D35
  increased avascular space: 18.1%
[2]; FA/ICGA, 14 days after laser photocoagulation
  vascular leakage suppression compared with Fc: 37.0%
[2]; measured 14 days after laser photocoagulation
  CNV regression compared with Fc (CD31+ CNV volume): 64.4%
[2]; within-group
  vascular leakage reduction between 6 and 14 days after laser photocoagulation: 45.6%

B1: Ang2: full-length human angiopoietin-2 protein (R&D Systems), Tie2 ligand, SEQ ID NO: 1 (protein)
chain: MWQIVFFTLSCDLVLAAAYNNFRKSMDSIGKKQYQVQHGSCSYTFLLPEMDNCRSSSSPYVSNAVQRDAPLEYDDSVQRLQVLENIMENNTQWLMKLENYIQDNMKKEMVEIQQNAVQNQTAVMIEIGTNLLNQTAEQTRKLTDVEAQVLNQTTRLELQLLEHSLSTNKLEKQILDQTSEINKLQDKNSFLEKKVLAMEDKHIIQLQSIKEEKDQLQVLVSKQNSIIEELEKKIVTATVNNSVLQKQQHDLMETVNNLLTMMSTSNSAKDPTVAKEEQISFRDCAEVFKSGHTTNGIYTLTFPNSTEEIKAYCDMEAGGGGWTIIQRREDGSVDFQRTWKEYKVGFGNPSGEYWLGNEFVSQLTNQQRYVLKIHLKDWEGNEAYSLYEHFYLSSEELNYRIHLKGLTGTAGKISSISQPGNDFSTKDGDNDKCICKCSQMLTGGWWFDACGPSNLNGMYYPQRQNTNKFNGIKWYYWKGSGYSLKATTMMIRPADF
modifications: Human Angiopoietin-2 full-length
[3]
  FOXO1 translocation from nucleus to cytosol: negligibly induced

B2: 4B9H21: humanized anti-Ang2 human IgG1 antibody from mouse 4B9; VH SEQ ID NO: 47, VL SEQ ID NO: 48 (antibody, V domains shown)
VH: QVQLVESGGGLVKPGGSLRLSCAASGFTFSDYYMYWVRQAPGKGLEWVSTISVGGSFTYYPDSVKGRFTISRDNAKNSLYLQMNSLRAEDTAVYYCARDWGLRPWFVYWGQGTLVTVSS
VL: DIQMTQSPSSLSASVGDRVTITCKASQDVSTAVAWYQQKPGKAPKLLIYWASTRHTGVPSRFSGSGSGTDFTLTISSLQPEDFATYYCQQHYSTPPTFGQGTKVEIK
modifications: human IgG1 constant regions; VH; VL
hAng2
  Kdis: 8.94e-06 s⁻¹
  Kon: 73700 M⁻¹ s⁻¹

B3: 4B9H31: humanized anti-Ang2 human IgG1 antibody from mouse 4B9; VH SEQ ID NO: 51, VL SEQ ID NO: 52 (antibody, V domains shown)
VH: B2 VH with S49A
VL: B2 VL
modifications: human IgG1 constant regions; VH; VL
hAng2
  Kdis: 1.56e-05 s⁻¹
  Kon: 93900 M⁻¹ s⁻¹
